Data published in US6413960B1, “Substituted pyrazolyl benzenesulfonamides for the treatment of asthma” (G.D. Searle & Co., priority 1993, dated 2002).
Read-outs that look alike come from different tables or passages of the source.

Key:
[1] = tested on: Male Sprague-Dawley rats (carrageenan hyperalgesic foot withdrawal); settings: rat
Protocol: Rat Carrageenan-induced Analgesia Test
Male Sprague-Dawley rats were treated as previously described for the carrageenan Foot Pad Edema test. Three hours after the injection of the carrageenan, the rats were placed in a special plexiglass container with a transparent floor having a high intensity lamp as a radiant heat source, positionable under the floor. After an initial twenty minute period, thermal stimulation was begun on either the injected foot or on the contralateral uninjected foot. A photoelectric cell turned off the lamp and timer when light was interrupted by paw withdrawal. The time until the rat withdraws its foot was then measured. The withdrawal latency in seconds was determined for the control and drug-treated groups, and percent inhibition of the hyperalgesic foot withdrawal determined.

[2] = tested on: Male Sprague-Dawley rats (carrageenan foot edema)
Protocol: Rat Carrageenan Foot Pad Edema Test
Male Sprague-Dawley rats were selected in each group so that the average body weight was as close as possible. Rats were fasted with free access to water for over sixteen hours prior to the test. […] One hour later a subplantar injection of 0.1 mL of 1% solution of carrageenan/sterile 0.9% saline was administered and the volume of the injected foot was measured with a displacement plethysmometer connected to a pressure transducer with a digital indicator. Three hours after the injection of the carrageenan, the volume of the foot was again measured.

[3] = oral, 30 mg/kg body weight, inhibition of hyperalgesic foot withdrawal
[4] = oral, 10 mg/kg body weight, foot volume 3 h after carrageenan

Structure (SMILES)	ANALGESIA % Inhibition @ 30 mg/kg body weight [1, 3] [%]	RAT PAW EDEMA % Inhibition @ 10 mg/kg body weight [2, 4] [%]	ANALGESIA % Inhibition @ 30 mg/kg body weight ([1]; in vivo) [%]	RAT PAW EDEMA % Inhibition @ 10 mg/kg body weight ([2]; in vivo) [%]
NS(=O)(=O)c1ccc(-n2nc(C(F)F)cc2-c2ccc(Cl)cc2)cc1 [Example 58, 4-[5-(4-Chlorophenyl)-3-(difluoromethyl)-1H-pyrazol-1-yl]benzenesulfonamide]	65	36		
COc1ccc(-c2cc(C(F)F)nn2-c2ccc(S(N)(=O)=O)cc2)cc1F [Example 59, 4-[5-(3-Fluoro-4-methoxyphenyl)-3-(difluoromethyl)-1H-pyrazol-1-yl]benzenesulfonamide]			41	25
COc1ccc(-c2cc(C(F)F)nn2-c2ccc(S(N)(=O)=O)cc2)cc1 [Example 60, 4-[3-Difluoromethyl-5-(4-methoxyphenyl)-1-H-pyrazol-1-yl]benzenesulfonamide]	39	49		
NS(=O)(=O)c1ccc(-n2nc(CO)cc2-c2ccc(Cl)cc2)cc1 [Example 171, 4-[5-(4-Chlorophenyl)-3-hydroxymethyl-1H-pyrazol-1-yl]benzenesulfonamide]	37	14		
